According to patent EP0191624A2, “Gold-purine antitumor agents” (ENGELHARD CORPORATION, priority 1985, dated 1986):
“And” between values parts separate entries of the source, which are not always exact repeats. Equal entries are not always repeated.

Legend:
S180 ascites = experiment: Screening for anti-tumor activity against S180 ascites (increase in life span); format: in vivo, female CFW Swiss mice; details: for %ILS: injected day 1; for 30-Day Survivors: survivors/mice in set
Procedure: The compounds were evaluated for anti-tumor activity against S180 ascites in female CFW Swiss mice by the following procedure: • CFW mice, averaging 20g, are immediately inspected and placed in newly prepared cages. On day zero the mice are inoculated with 0.2 ml. of a freshly prepared saline suspension (0.15 M NaCl) containing 1 x 10^7 tumor cells/ ml, or a total of 2 x 10^6 cells. This inoculum is freshly prepared using "transfer" mice which have been injected with tumor cells the previous week. This inoculum is the end-product of a series of steps which involves (1) the removal of the cells from the peritoneal cavity of the sacrificed transfer mouse, (2) alternate centrifugation- washing (2-3 times with cold saline) to remove occasional blood and other undesirable components, and finally (3) dilution (1:3) of the packed cell volume with saline (the final centrifugation being carried out at 1,000 rpm for 2 min.). A cell count is made on a 2,000-fold dilution of this 1:3 suspension by means of a Coulter Counter. A final dilution to 1 x 10^7 cells/ml. is made based on the averaged count. On day 1, solutions of the test compounds are prepared and the mice injected, with each mouse of a set of six being injected with the same test compound at the same dose level.
Also, on this day, two types of controls (6 mice/se are employed: (1) Normal (1 set): 0.5 ml. of the solvent medium used for the test compound, and (2) Positive control (1 set): a known anti-tumor agent (cis-(Pt(NH3)2Cl2] in saline at 8 mg./kg.), used to test the response of the biological system.
ILS values above 50% represent significant activity; those above 75% represent excellent activity.

[1] = Stability in aqueous solution with respect to reduction; format: physicochemical
Solubility in water = format: physicochemical
[2] = C. Dragulescu et al, Int. Coord. Chem. Conf. XVI 1,99 (1974); cited from earlier work
[3] = positive control in saline at 8 mg./kg., run alongside each test compound

| Compound | %ILS (S180 ascites; dose 5 mg/kg) [%] | 30-Day Survivors (S180 ascites; dose 5 mg/kg) | %ILS (S180 ascites; dose 10 mg/kg) [%] | 30-Day Survivors (S180 ascites; dose 10 mg/kg) | %ILS (S180 ascites; dose 20 mg/kg) [%] | 30-Day Survivors (S180 ascites; dose 20 mg/kg) | %ILS (S180 ascites; dose 40 mg/kg) [%] | 30-Day Survivors (S180 ascites; dose 40 mg/kg) | %ILS (S180 ascites; dose 80 mg/kg) [%] | 30-Day Survivors (S180 ascites; dose 80 mg/kg) | %ILS (S180 ascites; dose 160 mg/kg) [%] | 30-Day Survivors (S180 ascites; dose 160 mg/kg) | stable, at least with respect to reduction, in solution [1] | soluble in water (Solubility in water) | Control 30-Day Survivors (S180 ascites; [3]) | Control %ILS (S180 ascites; [3]) | antitumor activity in mice [2] | %ILS (S180 ascites; dose 320 mg/kg) [%] | 30-Day Survivors (S180 ascites; dose 320 mg/kg) |
| --- | --- | --- | --- | --- | --- | --- | --- | --- | --- | --- | --- | --- | --- | --- | --- | --- | --- | --- | --- |
| Cl.Cn1c(=O)c2c(ncn2CCCl)n(C)c1=O.Cn1c(=O)c2c(ncn2CCCl)n(C)c1=O.[Cl][Au]([Cl])[Cl] [Example 1, [AuCl3(7-chloroethyl-theophylline)](7-chloro-ethyltheophylline)·HCl] | 8 | 0/6 | -3 | 0/6 | 14 | 0/6 | 9 | 0/6 | 79 | 3/6 | 3 | 1/6 | ca. 24 hours | at least 64 mg/5 ml | – | – | – | – | – |
| N.N.[Cl][Pt][Cl] [Control, cis-diamminedichloroplatinum(II), reference compound] | – | – | – | – | – | – | – | – | – | – | – | – | – | – | 3/6 and 4/5 | 80% and 96% | – | – | – |
| [Au(III)(5-diazauracil)2Cl2]Cl | – | – | – | – | – | – | – | – | – | – | – | – | – | – | – | – | possess antitumor activity | – | – |
| Cl.Cn1c(=O)c2c(ncn2CC(O)CO)n(C)c1=O.Cn1c(=O)c2c(ncn2CC(O)CO)n(C)c1=O.[Cl][Au]([Cl])[Cl] (stereo not shown) [Example 2, [AuCl3(7-(2,3-dihydroxy-propyl)theophylline)] (7-(2,3-dihydroxypropyl)theophylline)·HCl] | – | – | -13 | 0/6 | -11 | 0/6 | -3 | 0/6 | 69 | 2/6 | 34 | 1/6 | ca. 24 hours | at least 64 mg/5 ml | – | – | – | -62 | 0/6 |
